According to PMC11112612, “Sulfonylureas exert antidiabetic action on adipocytes by inhibition of PPARγ serine 273 phosphorylation” (Molecular Metabolism, 2024):

Legend:
[1] = target: T1, peroxisome proliferator-activated receptor γ (PPARγ) (Homo sapiens, UniProt P37231); experiment: in vitro CDK5/P35 kinase assay on PPARγ LBD (ADP-Glo, phospho-Ser-273 Western blot); histone H1 phosphorylation not inhibited; PPRE luciferase in HEK293T; format: biochemical
T1 construct: gene PPARG; recombinant PPARγ LBD

[2] = target: T1, peroxisome proliferator-activated receptor γ (PPARγ); experiment: in vitro CDK5/P35 kinase assay on PPARγ LBD (ADP-Glo, phospho-Ser-273 Western blot); histone H1 phosphorylation not inhibited; weak PPRE luciferase activation; format: biochemical

T1 sequence (P37231 231-505 limits assumed): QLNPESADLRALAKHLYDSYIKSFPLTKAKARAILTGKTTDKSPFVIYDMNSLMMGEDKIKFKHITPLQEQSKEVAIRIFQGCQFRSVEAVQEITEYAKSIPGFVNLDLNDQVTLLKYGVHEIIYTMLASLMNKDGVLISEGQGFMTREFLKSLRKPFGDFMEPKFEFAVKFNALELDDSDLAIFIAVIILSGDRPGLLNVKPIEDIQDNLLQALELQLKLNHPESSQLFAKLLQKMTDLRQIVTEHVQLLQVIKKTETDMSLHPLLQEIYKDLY
T1 sequence (Q00535 whole entry partner, the tested form may be a part): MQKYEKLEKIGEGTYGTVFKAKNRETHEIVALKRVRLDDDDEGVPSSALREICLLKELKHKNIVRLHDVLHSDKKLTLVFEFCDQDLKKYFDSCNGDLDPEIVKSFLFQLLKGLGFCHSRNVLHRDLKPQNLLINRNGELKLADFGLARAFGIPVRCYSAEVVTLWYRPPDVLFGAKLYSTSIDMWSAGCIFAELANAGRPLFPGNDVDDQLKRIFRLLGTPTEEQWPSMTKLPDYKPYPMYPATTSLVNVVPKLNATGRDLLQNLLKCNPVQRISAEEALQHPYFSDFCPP
T1 sequence (Q15078 2-307 partner): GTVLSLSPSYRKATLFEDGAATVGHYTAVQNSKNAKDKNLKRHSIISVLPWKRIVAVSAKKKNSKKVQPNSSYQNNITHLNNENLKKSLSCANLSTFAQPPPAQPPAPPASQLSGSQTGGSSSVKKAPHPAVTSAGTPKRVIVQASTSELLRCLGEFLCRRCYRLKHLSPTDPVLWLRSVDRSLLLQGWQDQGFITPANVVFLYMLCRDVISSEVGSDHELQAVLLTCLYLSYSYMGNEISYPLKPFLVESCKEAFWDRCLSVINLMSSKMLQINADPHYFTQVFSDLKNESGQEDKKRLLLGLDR

| IC50 [2] [nM] | SMILES | IC50 [1] [nM] |
| --- | --- | --- |
|  | COc1ccc(Cl)cc1C(=O)NCCc1ccc(S(=O)(=O)NC(=O)NC2CCCCC2)cc1 [glibenclamide] | 25 |
| 378 | CCC1=C(C)CN(C(=O)NCCc2ccc(S(=O)(=O)NC(=O)N[C@H]3CC[C@H](C)CC3)cc2)C1=O [glimepiride] |  |
